Assay results as given in ChEMBL document CHEMBL3862026, “Synthesis and biological evaluation of ranitidine analogs as multiple-target-directed cognitive enhancers for the treatment of Alzheimer's disease” (Bioorg Med Chem Lett, 2016).

What was measured:
[1] = target: Cholinesterase (Equus caballus, UniProt P81908); test: Inhibition of equine serum BuChE using butyrylthiocholine as substrate preincubated for 8 mins followed by substrate addition by Ellman's method
[2] = target: Muscarinic acetylcholine receptor M3 (Rattus norvegicus) (UniProt P08483); test: Displacement of [3H]QNB from muscarinic M3 receptor in rat brain homogenates at 1 uM after 60 mins relative to control; format: tissue-based
[3] = target: T1, Muscarinic acetylcholine receptor M1 (Rattus norvegicus) (UniProt P08482); test: Displacement of [3H]QNB from muscarinic M1 receptor in rat brain homogenates at 1 uM after 60 mins relative to control; format: tissue-based
T1 sequence (whole entry): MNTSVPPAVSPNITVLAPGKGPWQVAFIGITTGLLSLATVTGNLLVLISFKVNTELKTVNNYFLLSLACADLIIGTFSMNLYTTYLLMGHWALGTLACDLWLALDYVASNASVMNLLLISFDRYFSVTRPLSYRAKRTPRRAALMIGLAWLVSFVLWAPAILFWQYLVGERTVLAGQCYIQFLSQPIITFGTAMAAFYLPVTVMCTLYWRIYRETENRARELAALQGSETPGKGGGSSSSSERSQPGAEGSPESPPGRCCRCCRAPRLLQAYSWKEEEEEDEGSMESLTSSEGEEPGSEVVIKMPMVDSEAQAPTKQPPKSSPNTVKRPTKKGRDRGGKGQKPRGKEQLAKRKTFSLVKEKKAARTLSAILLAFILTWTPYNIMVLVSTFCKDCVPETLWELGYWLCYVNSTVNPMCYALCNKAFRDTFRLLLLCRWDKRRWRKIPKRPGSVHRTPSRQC

[4] = target: T2, Muscarinic acetylcholine receptor M4 (Rattus norvegicus) (UniProt P08485); test: Displacement of [3H]QNB from muscarinic M4 receptor in rat brain homogenates at 1 uM after 60 mins relative to control; format: tissue-based
T2 sequence (whole entry): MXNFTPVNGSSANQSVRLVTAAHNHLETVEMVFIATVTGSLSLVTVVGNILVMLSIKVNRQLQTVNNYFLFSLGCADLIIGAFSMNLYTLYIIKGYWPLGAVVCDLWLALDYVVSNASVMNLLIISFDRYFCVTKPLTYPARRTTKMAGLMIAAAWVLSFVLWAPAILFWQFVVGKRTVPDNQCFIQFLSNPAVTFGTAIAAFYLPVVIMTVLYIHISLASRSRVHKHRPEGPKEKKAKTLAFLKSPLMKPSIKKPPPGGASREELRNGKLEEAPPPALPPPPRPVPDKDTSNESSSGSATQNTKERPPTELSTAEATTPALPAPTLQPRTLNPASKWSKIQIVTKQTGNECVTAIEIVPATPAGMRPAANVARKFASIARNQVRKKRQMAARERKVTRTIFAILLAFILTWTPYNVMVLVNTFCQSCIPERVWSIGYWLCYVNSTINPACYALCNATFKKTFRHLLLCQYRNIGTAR

[5] = target: Acetylcholinesterase (Electrophorus electricus, UniProt O42275); test: Inhibition of electric eel AChE using acetylthiocholine as substrate preincubated for 8 mins followed by substrate addition by Ellman's method
[6] = target: T3, Muscarinic acetylcholine receptor M2 (Rattus norvegicus) (UniProt P10980); test: Displacement of [3H]QNB from muscarinic M2 receptor in rat brain homogenates at 1 uM after 60 mins relative to control; format: tissue-based
T3 sequence (whole entry): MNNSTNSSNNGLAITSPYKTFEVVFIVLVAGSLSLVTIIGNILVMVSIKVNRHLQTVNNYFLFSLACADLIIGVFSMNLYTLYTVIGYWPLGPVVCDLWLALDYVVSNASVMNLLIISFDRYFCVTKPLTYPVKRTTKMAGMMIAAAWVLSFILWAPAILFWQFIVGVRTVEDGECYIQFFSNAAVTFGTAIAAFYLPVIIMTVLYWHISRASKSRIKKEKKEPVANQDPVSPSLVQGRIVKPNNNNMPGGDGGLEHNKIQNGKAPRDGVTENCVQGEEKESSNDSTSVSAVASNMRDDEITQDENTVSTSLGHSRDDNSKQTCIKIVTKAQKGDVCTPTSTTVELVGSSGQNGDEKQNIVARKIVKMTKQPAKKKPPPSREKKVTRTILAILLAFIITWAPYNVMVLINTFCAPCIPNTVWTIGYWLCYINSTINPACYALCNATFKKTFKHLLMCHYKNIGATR

Sequence of Cholinesterase (P81908 whole entry): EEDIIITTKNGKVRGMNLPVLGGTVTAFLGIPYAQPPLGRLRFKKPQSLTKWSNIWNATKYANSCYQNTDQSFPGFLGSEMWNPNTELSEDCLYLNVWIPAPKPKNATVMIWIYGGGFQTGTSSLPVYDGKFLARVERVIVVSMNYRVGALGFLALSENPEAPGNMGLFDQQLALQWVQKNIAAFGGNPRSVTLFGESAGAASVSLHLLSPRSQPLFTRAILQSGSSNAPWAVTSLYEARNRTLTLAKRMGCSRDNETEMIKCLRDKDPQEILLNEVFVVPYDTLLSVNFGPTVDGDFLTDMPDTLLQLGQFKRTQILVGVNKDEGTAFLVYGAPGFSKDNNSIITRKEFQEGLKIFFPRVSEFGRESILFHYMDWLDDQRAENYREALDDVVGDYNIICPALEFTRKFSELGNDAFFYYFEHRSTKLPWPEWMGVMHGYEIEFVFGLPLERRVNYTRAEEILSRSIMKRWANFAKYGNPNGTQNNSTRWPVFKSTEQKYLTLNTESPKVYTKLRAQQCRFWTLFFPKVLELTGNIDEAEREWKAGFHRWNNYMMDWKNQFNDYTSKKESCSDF
Sequence of Acetylcholinesterase (O42275 whole entry): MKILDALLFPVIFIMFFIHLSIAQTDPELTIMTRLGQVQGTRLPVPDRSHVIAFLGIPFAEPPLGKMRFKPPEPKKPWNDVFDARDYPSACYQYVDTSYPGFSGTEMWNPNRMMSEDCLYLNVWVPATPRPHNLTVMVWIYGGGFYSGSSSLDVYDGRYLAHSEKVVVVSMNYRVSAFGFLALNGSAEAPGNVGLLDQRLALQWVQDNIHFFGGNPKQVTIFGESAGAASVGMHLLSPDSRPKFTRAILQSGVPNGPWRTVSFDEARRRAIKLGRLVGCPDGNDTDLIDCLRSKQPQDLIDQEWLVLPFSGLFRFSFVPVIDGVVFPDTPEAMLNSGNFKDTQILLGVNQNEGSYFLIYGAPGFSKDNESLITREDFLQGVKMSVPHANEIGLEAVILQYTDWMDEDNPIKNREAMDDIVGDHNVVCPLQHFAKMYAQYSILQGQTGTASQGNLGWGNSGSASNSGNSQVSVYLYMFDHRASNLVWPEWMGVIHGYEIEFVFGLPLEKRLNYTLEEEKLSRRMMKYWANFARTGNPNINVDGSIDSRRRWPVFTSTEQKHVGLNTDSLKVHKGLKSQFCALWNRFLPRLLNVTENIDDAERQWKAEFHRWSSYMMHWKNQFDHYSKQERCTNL
Sequence of Muscarinic acetylcholine receptor M3 (Rattus norvegicus) (P08483 whole entry, looked up): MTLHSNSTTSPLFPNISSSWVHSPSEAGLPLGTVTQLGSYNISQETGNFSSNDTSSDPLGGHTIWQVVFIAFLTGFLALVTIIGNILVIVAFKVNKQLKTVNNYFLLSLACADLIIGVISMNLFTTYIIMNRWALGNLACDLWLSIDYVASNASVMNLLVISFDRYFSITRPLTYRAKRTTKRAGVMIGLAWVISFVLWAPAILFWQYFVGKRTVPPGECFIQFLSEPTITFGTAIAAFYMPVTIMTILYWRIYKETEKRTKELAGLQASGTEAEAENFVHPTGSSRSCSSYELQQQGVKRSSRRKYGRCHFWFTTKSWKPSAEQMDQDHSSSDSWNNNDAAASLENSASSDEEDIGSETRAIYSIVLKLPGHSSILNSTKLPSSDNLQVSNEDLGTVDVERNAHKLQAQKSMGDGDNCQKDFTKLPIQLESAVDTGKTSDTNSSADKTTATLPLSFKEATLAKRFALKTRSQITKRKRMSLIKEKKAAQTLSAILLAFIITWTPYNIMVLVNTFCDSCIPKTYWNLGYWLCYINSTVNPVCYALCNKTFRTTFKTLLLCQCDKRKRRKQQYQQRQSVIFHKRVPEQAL

SMILES | IC50 [1] | inhibition [2] | inhibition [3] | inhibition [4] | IC50 [5] | inhibition [6]
CS/C(=N\S(=O)(=O)c1ccc(C)cc1)NCCSCc1ccc(CN(C)C)o1 | > 50 µM | 18.5% | 37.5% | 4.2% | > 50 µM | 
CN(C)Cc1ccc(CSCCNc2ccc(Cl)nn2)o1 | > 50 µM | 2.3% | 25.2% | 7.7% | 10.4 µM | 9.8%
CCc1nnc(NCCSCc2ccc(CN(C)C)o2)c([N+](=O)[O-])c1CC | 18.8 µM |  |  |  | 2.54 µM | 
Cc1ccc(S(=O)(=O)NCCSCc2ccc(CN(C)C)o2)cc1 | 47.2 µM |  |  |  | > 50 µM | 
CC1CC(=O)N(CCSCc2ccc(CN(C)C)o2)C1=O (stereo not given) | > 50 µM |  |  |  | 33.4 µM | 
CN(C)Cc1ccc(CSCCN/C(=C/[N+](=O)[O-])N/N=C/c2ccccc2)o1 | 2.96 µM | 66.6% | 88.5% | 62.3% | 1.18 µM | 67%
C=C1C(C)=NN/C(=C\[N+](=O)[O-])N1CCSCc1ccc(CN(C)C)o1 | 7.1 µM | 90.4% | 88.8% | 92.1% | 1.65 µM | 81%
CN(C)Cc1ccc(CSCCN/C(=C/[N+](=O)[O-])N2CCCCC2)o1 | 21.2 µM | 41.5% | 72.1% | 47.7% | 4.04 µM | 54%
CN(C)Cc1ccc(CSCCNc2nnc(-c3ccccc3)cc2[N+](=O)[O-])o1 | 4.46 µM | 38% | 40% | 16% | 0.26 µM | 34%
CN(C)Cc1ccc(CSCCN2C(=O)CCC2=O)o1 | > 50 µM |  |  |  | 11.8 µM | 
Cc1nnc(NCCSCc2ccc(CN(C)C)o2)c([N+](=O)[O-])c1C |  | 48% | 74% | 67% | 2.72 µM | 63%
CN(C)Cc1ccc(CSCCNc2nnccc2[N+](=O)[O-])o1 |  | 32% | 80% | 74% | 0.47 µM | 97%
CN(C)Cc1ccc(CSCCNc2nncc(-c3ccccc3)c2[N+](=O)[O-])o1 | 22.7 µM | 27% | 40% | 18% | 0.46 µM | 37%
CN(C)Cc1ccc(CSCCN2C(=O)c3ccc([N+](=O)[O-])cc3C2=O)o1 | > 50 µM |  |  |  | 46 µM | 
Cc1c(-c2ccccc2)nnc(NCCSCc2ccc(CN(C)C)o2)c1[N+](=O)[O-] | 3.71 µM | 63% | 84% | 58% | 0.16 µM | 72%
CN(C)Cc1ccc(CSCCNc2ncccn2)o1 | 7.65 µM | 24.3% | 56.2% | 24.9% | 16.2 µM | 50.8%
Cc1cccc(Nc2ccccc2C(=O)NCCSCc2ccc(CN(C)C)o2)c1C | > 50 µM | 69.6% | 77.4% | 33.8% | > 50 µM | 50.8%
CN(C)Cc1ccc(CSCCNc2ncccc2C#N)o1 | 8.36 µM |  |  |  | 5.34 µM | 
CN(C)Cc1ccc(CSCCNc2nnc(-c3ccccc3)c(-c3ccccc3)c2[N+](=O)[O-])o1 | 7.05 µM | 73% | 76% | 48% | 0.19 µM | 51%
CN(C)Cc1ccc(CSCCN2C(=O)c3cccc4cc([N+](=O)[O-])cc(c34)C2=O)o1 | 8.01 µM |  |  |  | 0.15 µM | 
CN(C)Cc1ccc(CSCCNC(=O)c2ccccc2-c2ccccc2C(=O)O)o1 | > 50 µM |  |  |  | > 50 µM | 
CN(C)Cc1ccc(CSCCNc2nc(N)n[nH]2)o1 | > 50 µM | 30.1% | 57.4% | 43.6% | > 50 µM | 71.3%
CN(C)Cc1ccc(CSCCNc2nnc(-c3cccs3)c(-c3cccs3)c2[N+](=O)[O-])o1 | 2.28 µM |  |  |  | 0.35 µM | 
Cc1cc([N+](=O)[O-])c(NCCSCc2ccc(CN(C)C)o2)nn1 | 28.4 µM | 46% | 79% | 57% | 0.68 µM | 78%
CN(C)Cc1ccc(CSCCN2C(=O)c3ccccc3C2=O)o1 | 14.5 µM |  |  |  | 3.57 µM | 
Cc1nnc(NCCSCc2ccc(CN(C)C)o2)c([N+](=O)[O-])c1-c1ccccc1 |  | 52% | 60% | 37% | 0.72 µM | 40%
CN(C)Cc1ccc(CSCCNC(=O)Cc2ccccc2Nc2c(Cl)cccc2Cl)o1 | 7.65 µM | 43.5% | 60.1% | 47.3% |  | 27.4%
CN(C)Cc1ccc(CSCCNc2nc(N)no2)o1 | > 50 µM | 49.8% | 69.9% | 42.7% | > 50 µM | 72.8%
CN(C)Cc1ccc(CSCCN2C(=O)c3cccc4cccc(c34)C2=O)o1 | 7.21 µM |  |  |  | 1.27 µM | 
